Experimental data reported in patent US12637413B2, “Fatty acid amide hydrolase (FAAH) cleavable prodrugs of thyromimetics and combination with peripherally restricted FAAH inhibitors” (Autobahn Therapeutics, Inc., priority 2021, dated 2026).

Experiments:
[1] = biological target: T1, recombinant human FAAH (Homo sapiens, UniProt O00519); test: FAAH inhibition, 30 min preincubation, AMC substrate; assay type: biochemical; settings: 30 min preincubation with recombinant human FAAH and AMC; read-out: Apparent IC50s
T1 sequence (O00519 1-579): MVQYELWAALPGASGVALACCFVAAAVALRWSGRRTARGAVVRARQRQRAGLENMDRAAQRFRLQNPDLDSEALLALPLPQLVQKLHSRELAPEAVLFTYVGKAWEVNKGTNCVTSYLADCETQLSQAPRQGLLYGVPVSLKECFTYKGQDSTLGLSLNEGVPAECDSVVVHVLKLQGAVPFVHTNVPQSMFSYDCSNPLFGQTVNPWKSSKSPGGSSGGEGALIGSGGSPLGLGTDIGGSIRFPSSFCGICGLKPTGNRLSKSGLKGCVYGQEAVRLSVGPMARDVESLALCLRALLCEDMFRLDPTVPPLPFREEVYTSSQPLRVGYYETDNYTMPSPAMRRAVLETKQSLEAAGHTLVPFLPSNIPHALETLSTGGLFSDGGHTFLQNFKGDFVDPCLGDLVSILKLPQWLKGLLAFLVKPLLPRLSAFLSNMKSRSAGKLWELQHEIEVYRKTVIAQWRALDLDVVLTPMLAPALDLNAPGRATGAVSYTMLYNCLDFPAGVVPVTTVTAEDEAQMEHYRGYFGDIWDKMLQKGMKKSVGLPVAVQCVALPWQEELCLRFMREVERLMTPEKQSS

[2] = biological target: T2, FAAH (Mus musculus, UniProt O08914); test: tissue distribution after co-dosing prodrug ABX-002 with or without PFI or GFI; assay type: in vivo, mice; settings: for Distribution: peripheral or global FAAH inhibitor
T2 construct: from tissue; host or cells: living mice; plasma, liver and brain sampled
T2 sequence (O08914 1-579): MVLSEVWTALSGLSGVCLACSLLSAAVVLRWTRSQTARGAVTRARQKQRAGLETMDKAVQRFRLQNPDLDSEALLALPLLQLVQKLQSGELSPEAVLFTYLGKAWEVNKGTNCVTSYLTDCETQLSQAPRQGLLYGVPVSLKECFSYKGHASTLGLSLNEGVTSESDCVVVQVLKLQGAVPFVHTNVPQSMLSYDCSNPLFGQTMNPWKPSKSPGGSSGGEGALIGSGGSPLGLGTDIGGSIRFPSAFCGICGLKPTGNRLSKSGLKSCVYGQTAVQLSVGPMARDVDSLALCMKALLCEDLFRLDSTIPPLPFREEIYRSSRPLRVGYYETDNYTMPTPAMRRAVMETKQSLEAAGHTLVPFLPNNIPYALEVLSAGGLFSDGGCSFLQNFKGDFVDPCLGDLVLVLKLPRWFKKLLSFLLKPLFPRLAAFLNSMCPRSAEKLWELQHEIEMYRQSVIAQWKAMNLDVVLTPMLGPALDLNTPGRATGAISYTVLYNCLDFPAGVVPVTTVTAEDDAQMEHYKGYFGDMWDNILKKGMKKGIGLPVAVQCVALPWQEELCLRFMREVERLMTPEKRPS
Method: The ability of globally-penetrant and peripherally-restricted FAAH inhibitors (GFI & PFI, respectively) to alter distribution of ABX-002 and ABX-002A was assessed.
Table 5 depicts the inhibition of active metabolite (LL-650177 or PF-044578454) in AUC in the plasma, liver, and brain after prodrug (ABX-002) co-dosing. Tissue distribution studies in mice confirm global & peripheral inhibition of FAAH.

## O=C(Nc1cccnn1)N1CCC(=Cc2cccc(Oc3ccc(C(F)(F)F)cn3)c2)CC1 [PF-04457845]
[1]
  IC50: 3 nM
[2]; ABX-002A AUC after ABX-002 co-dosing, mice, brain
  inhibition of active metabolite AUC, Brain: 83%
[2]; ABX-002A AUC after ABX-002 co-dosing, mice, liver
  inhibition of active metabolite AUC, Liver: 94%
[2]; ABX-002A AUC after ABX-002 co-dosing, mice, plasma
  inhibition of active metabolite AUC, Plasma: 94%
[2]
  Distribution: Global

## NC(=O)c1cccc(-c2cc(OC(=O)NC3CCCCC3)ccc2O)c1 [URB937]
[1]
  IC50: 69 nM
[2]
  Distribution: Peripheral
